Strand notation (5' to 3'): a small letter for the sugar, then the base; units joined by * are phosphorothioate-linked, units joined directly phosphodiester-linked; [ ] holds rarer units or linkages, { } end groups; capitals alone tell only the bases. e = 2'-O-(2-methoxyethyl) (MOE); [5mC] = 5-methylcytosine; d = 2'-deoxy (DNA)
Columns and labels:
[1] = system: DBA/1LacJ mice with collagen-induced arthritis; assay: Collagen-induced arthritis (CIA) murine model; type: in vivo, mouse; settings: CIA in DBA/1LacJ mice; for % Incidence: 10 mg/kg intraperitoneally daily from day -3, control 70%; for Peak day (day from onset of maximum swelling for each joint measure) / Severity (total clinical score divided by the total number of mice in the group): 10 mg/kg intraperitoneally daily; for Peak day (day from onset of maximum swelling for each joint measure): control 6.7 ± 2.9; for Severity (total clinical score divided by the total number of mice in the group): limbs graded 0-4, control 3.2 ± 1.1
Method: Collagen-induced arthritis (CIA) was used as a murine model for arthritis (Mussener, A., et al., Clin. Exp. Immunol., 1997, 107, 485-493). Female DBA/1LacJ mice (Jackson Laboratories, Bar Harbor, Me.) between the ages of 6 and 8 weeks were used to assess the activity of B7-1 antisense oligonucleotides.
On day 0, the mice were immunized at the base of the tail with 100 μg of bovine type II collagen which is emulsified in Complete Freund's Adjuvant (CFA). On day 7, a second booster dose of collagen was administered by the same route. On day 14, the mice were injected subcutaneously with 100 μg of LPS. Oligonucleotide was administered intraperitoneally daily (10 mg/kg bolus) starting on day −3 (three days before day 0) and continuing for the duration of the study. Oligonucleotide 17456 (SEQ ID NO. 173) is a fully phosphorothioated analog of 18122.
Weights were recorded weekly. Mice were inspected daily for the onset of CIA. Paw widths are rear ankle widths of affected and unaffected joints were measured three times a week using a constant tension caliper. Limbs were clinically evaluated and graded on a scale from 0-4 (with 4 being the highest).

Mouse B7-2 mRNA = Mouse B7-2 mRNA expression, screened as in Example 4; type: cell-based; design: % mRNA INHIBITION: concentration or dose not given beside the values; settings: for % mRNA INHIBITION: screened as in Example 4; for % mRNA EXPRESSION: screened as in Example 4, basal = 100.0%
Method: For ribonuclease protection assays, cells were harvested 18 hours after completion of oligonucleotide treatment using a Totally RNA™ kit (Ambion, Austin, Tex.). The probes for the assay were generated from plasmids pcB7-2 (linearized by digestion with Bgl II) and pTRI-b-actin (Ambion Inc., Austin, Tex.). In vitro transcription of the linearized plasmid from the SP6 promoter was performed in the presence of α-^32P-UTP (800 Ci/mmole) yielding an antisense RNA complementary to the 3′ end of B7-2 (position 1044-1391). The probe was gel-purified after treatment with DNase I to remove DNA template. Ribonuclease protection assays were carried out using an RPA II™ kit (Ambion) according to the manufacturer's directions. Total RNA (5 μg) was hybridized overnight, at 42° C., with 10^5 cpm of the B7-2 probe or a control beta-actin probe. The hybridization reaction was then treated, at 37° C. for 30 minutes, with 0.4 units of RNase A and 2 units of RNase T1. Protected RNA was precipitated, resuspended in 10 μL of gel loading buffer and electrophoresed on a 6% acrylamide gel with 50% w/v urea at 20 W. The gel was then exposed and the lanes quantitated using a PhosphorImager (Molecular Dynamics, Sunnyvale, Calif.) essentially according to the manufacturer's instructions.
Oligonucleotides were screened as described in Example 4.

murine B7-2 (mB7-2) = assay: Murine B7-2 cell surface expression in transfected COS-7 cells by flow cytometry; type: cell-based, mouse; settings: mouse B7-2 cell surface expression
Text: (§1) Oligonucleotides (see Table 4) capable of inhibiting expression of murine B7-2 transiently expressed in COS-7 cells were identified in the following manner. A series of phosphorothioate oligonucleotides complementary to murine B7-2 (mB7-2) cDNA were screened for their ability to reduce mB7-2 levels (measured by flow cytometry as in Example 2, except that a conjugated anti-mB7-2 antibody (i.e., anti-mCD86-PE, PharMingen, San Diego, Calif.) in COS-7 cells transfected with an mB7-2 cDNA clone. Anti-mB7-2 antibody may also be obtained from the hybridoma deposited at the ATCC under accession No. HB-253. Oligonucleotides (see Table 2) capable of modulating murine B7-1 expression are isolated in like fashion, except that a conjugated anti-mB7-1 antibody is used in conjunction with COS-7 cells transfected with an mB7-1 cDNA clone.
(§2) B7 antisense oligonucleotides were tested for their effect on cell surface expression of both B7-1 and B7-2. Cell surface expression was measured as described in Example 1. Experiments were done for both human B7 and mouse B7.

murine B7-1 = assay: Murine B7-1 cell surface expression in transfected COS-7 cells by flow cytometry; type: cell-based; settings: mouse B7-1 cell surface expression, basal = 100%
Text: as §1, §2

Mouse B7-1 mRNA = Mouse B7-1 mRNA expression, screened as in Example 4; type: cell-based; design: % mRNA INHIBITION: concentration or dose not given beside the values; settings: Table 10
[2] = system: BALB/c mice with heart allograft; assay: Murine heart allograft rejection model; type: in vivo, mouse
Method: A murine model for evaluating compounds for their ability to inhibit heart allograft rejection has been previously described (Stepkowski et al., J. Immunol., 1994, 153, 5336). This model was used to evaluate the immunosuppressive capacity of antisense oligonucleotides to B7 proteins alone or in combination with antisense oligonucleotides to intercellular adhesion molecule-1 (ICAM-1).
Heart allograft rejection studies and oligonucleotide treatments of BALB/c mice were performed essentially as previously described (Stepkowski et al., J. Immunol., 1994, 153, 5336). Antisense oligonucleotides used included ISIS 11696, ISIS 3082 (targeted to ICAM-1) and ISIS 1082 (a control oligonucleotide targeted to the herpes virus UL-13 gene sequence). Dosages used were 1, 2, 2.5, 5 or 10 mg/kg of individual oligonucleotide (as indicated below); when combinations of oligonucleotides were administered, each oligonucleotide was given at a dosage of 1, 5 or 10 mg/kg (total oligonucleotide dosages of 2, 10 and 20 mg/kg, respectively). The survival times of the transplanted hearts and their hosts were monitored and recorded.

Row | Substance | % B7-2 EXPRESSION (murine B7-2 (mB7-2)) [%] | % B7-1 EXPRESSION (murine B7-1) [%] | % mRNA EXPRESSION (Mouse B7-1 mRNA) [%] | % mRNA INHIBITION (Mouse B7-1 mRNA) [%] | other results
1 | 11696 (antisense dG*dG*dA*dT*dT*dG*dC*dC*dA*dA*dG*dC*dC*dC*dA*dT*dG*dG*dT*dG) [compound 11696] | – | – | – | – | % Incidence [1]: 37.5%; Peak day (day from onset of maximum swelling for each joint measure) [1]: 11.6 ± 4.5 days; Severity (total clinical score divided by the total number of mice in the group) [1]: 3.4 ± 1.8
2 | 18089 (antisense eG*eT*e[5mC]*eA*eA*dA*dG*d[5mC]*dT*d[5mC]*dG*dT*dG*d[5mC]*dG*eG*e[5mC]*e[5mC]*e[5mC]*eA) [compound 18089] | 36 | 85 | – | – | % mRNA INHIBITION (Mouse B7-2 mRNA): 79.1%; % mRNA EXPRESSION (Mouse B7-2 mRNA): 20.9%; % Incidence [1]: 44.4%; Peak day (day from onset of maximum swelling for each joint measure) [1]: 6.8 ± 2.2 days; Severity (total clinical score divided by the total number of mice in the group) [1]: 2.3 ± 1.3
3 | 18097 (antisense eT*eG*e[5mC]*e[5mC]*eA*dA*dG*d[5mC]*d[5mC]*d[5mC]*dA*dT*dG*dG*dT*eG*e[5mC]*eA*eT*e[5mC]) [compound 18097] | 28 | 87 | – | – | % mRNA INHIBITION (Mouse B7-2 mRNA): 75.5%; % mRNA EXPRESSION (Mouse B7-2 mRNA): 24.5%
4 | 18110 (antisense eA*eT*eG*eA*eG*dG*dA*dG*dA*dG*dT*dT*dG*dT*dA*eA*e[5mC]*eG*eG*e[5mC]) [compound 18110] | 93 | 31 | 21.0 | 79.0 | % Incidence [1]: 55.6%; Peak day (day from onset of maximum swelling for each joint measure) [1]: 2.0 ± 0.8 days; Severity (total clinical score divided by the total number of mice in the group) [1]: 2.0 ± 1.3
5 | 18113 (antisense eG*eT*eG*eA*eA*dG*dT*d[5mC]*d[5mC]*dT*d[5mC]*dT*dG*dA*d[5mC]*eA*e[5mC]*eG*eT*eG) [compound 18113] | 91 | 25 | 24.6 | 75.4 | –
6 | 18116 (antisense eT*eT*eG*eA*eT*dG*dA*dT*dG*dA*d[5mC]*dA*dA*d[5mC]*dG*eA*eT*eG*eA*e[5mC]) [compound 18116] | – | – | 65.6 | 34.4 | –
7 | 18117 (antisense e[5mC]*eT*eG*eT*eT*dG*dT*dT*dT*dG*dT*dT*dT*d[5mC]*dT*e[5mC]*eT*eG*e[5mC]*eT) [compound 18117] | – | – | 46.7 | 53.3 | –
8 | 18118 (antisense eT*eG*eT*eT*e[5mC]*dA*dG*d[5mC]*dT*dA*dA*dT*dG*d[5mC]*dT*eT*e[5mC]*eT*eT*e[5mC]) [compound 18118] | – | – | 31.7 | 68.3 | –
9 | 18119 (antisense eG*eT*eT*eA*eA*d[5mC]*dT*d[5mC]*dT*dA*dT*d[5mC]*dT*dT*dG*eT*eG*eT*e[5mC]*eA) [compound 18119] | 98 | 27 | 24.0 | 76.0 | –
10 | 18120 (antisense eT*e[5mC]*e[5mC]*eA*e[5mC]*dT*dT*d[5mC]*dA*dG*dT*d[5mC]*dA*dT*d[5mC]*eA*eA*eG*e[5mC]*eA) [compound 18120] | – | – | 26.7 | 73.3 | –
11 | 18121 (antisense eT*eG*e[5mC]*eT*e[5mC]*dA*dA*dT*dA*d[5mC]*dT*d[5mC]*dT*d[5mC]*dT*eT*eT*eT*eT*eA) [compound 18121] | – | – | 114.0 | – | –
12 | 18122 (antisense eA*eG*eG*e[5mC]*e[5mC]*d[5mC]*dA*dG*d[5mC]*dA*dA*dA*d[5mC]*dT*dT*eG*e[5mC]*e[5mC]*e[5mC]*eG) [compound 18122] | – | – | 42.0 | 58.0 | –
13 | 18123 (antisense eA*eA*e[5mC]*eG*eG*d[5mC]*dA*dA*dG*dG*d[5mC]*dA*dG*d[5mC]*dA*eA*eT*eA*e[5mC]*e[5mC]) [compound 18123] | – | – | 42.0 | 58.0 | –
14 | ISIS 1082: control oligonucleotide targeted to the herpes virus UL-13 gene sequence; SEQ ID NO: 102 (125) (antisense GCCGAGGTCCATGTCGTACGC; listed as DNA, chemistry not given here) | – | – | – | – | mean survival time ([2]; 5 mg/kg/day for 7 days): 7.1 ± 0.7 days; mean survival time ([2]; 10 mg/kg/day for 7 days): 7.0 ± 0.8 days
15 | ISIS 3082: ICAM-1 oligonucleotide, previously described (Stepkowski et al.); SEQ ID NO: 101 (antisense TGCATCCCCCAGGCCACCAT; listed as DNA, chemistry not given here) | – | – | – | – | mean survival time ([2]; 1 mg/kg/day for 7 days): 11.0 ± 0.0 days; mean survival time ([2]; 2.5 mg/kg/day for 7 days): 12.0 ± 2.7 days; mean survival time ([2]; 5 mg/kg/day for 7 days): 14.1 ± 2.7 days; mean survival time ([2]; 10 mg/kg/day for 7 days): 15.3 ± 5.8 days

Source: patent US7897582B2, “Oligonucleotide compositions and methods for the modulation of the expression of B7 protein” (Isis Pharmaceuticals, Inc., priority 2003, dated 2011)
